In DBAASP:
≈ marks a conversion by molar mass, not a printed value.

Legend:
Assay in all cases: ≥ marks a high value that may be exact or a test limit, other limits are often not marked, values filed in µg/mL are converted to µM
[1] = tested on: Escherichia coli ATCC 25922
[2] = tested on: Escherichia coli K88
[3] = tested on: Escherichia coli K99
[4] = tested on: Escherichia coli UB1005
[5] = tested on: Lacticaseibacillus rhamnosus 1.0385
[6] = tested on: Lacticaseibacillus rhamnosus 1.0911
[7] = tested on: Lacticaseibacillus rhamnosus 1.0936
[8] = tested on: Lacticaseibacillus rhamnosus 7469
[9] = tested on: Lactiplantibacillus plantarum 8014
[10] = tested on: Pseudomonas aeruginosa ATCC 27853
[11] = tested on: Salmonella enterica subsp. enterica serovar Pullorum C79-13
[12] = tested on: Salmonella enterica subsp. enterica serovar Typhimurium ATCC 14028
[13] = tested on: Salmonella enterica subsp. enterica serovar Typhimurium C77-31
[14] = tested on: Staphylococcus aureus ATCC 25923
[15] = tested on: Staphylococcus aureus ATCC 29213
[16] = tested on: Staphylococcus aureus ATCC 43300
[17] = tested on: Acinetobacter baumannii ATCC 19606
[18] = tested on: Bacillus anthracis Sterne 34F2
[19] = tested on: Bacillus subtilis 168
[20] = tested on: Escherichia coli DH5alpha
[21] = tested on: Haemophilus influenzae ATCC 49247
[22] = tested on: Klebsiella pneumoniae NCTC 9633
[23] = tested on: Mycobacterium tuberculosis H37Ra
[24] = tested on: Pseudomonas aeruginosa PAO1
[25] = tested on: Staphylococcus aureus NRS 72
[26] = tested on: Staphylococcus aureus USA 300
[27] = tested on: Escherichia coli 078
[28] = tested on: Salmonella enterica subsp. enterica serovar Pullorum ATCC 7913
[29] = tested on: Staphylococcus epidermidis ATCC 12228
[30] = tested on: Streptococcus agalactiae CICC 10465
[31] = tested on: Streptococcus agalactiae
[32] = tested on: Streptococcus thermophilus YM-C
[33] = tested on: Acinetobacter baumannii 7226/16
[34] = tested on: Escherichia coli ESBL 521/17
[35] = tested on: Escherichia coli ML-35p
[36] = tested on: Klebsiella pneumoniae ESBL 344/17
[37] = tested on: Pseudomonas aeruginosa 522/17
[38] = tested on: Staphylococcus aureus 1399/17
[39] = tested on: Staphylococcus aureus ATCC 33591
[40] = tested on: Staphylococcus aureus SG511
[41] = tested on: Bacillus subtilis KACC 10196
[42] = tested on: Candida albicans KACC 30071
[43] = tested on: Enterococcus faecalis KACC 11304
[44] = tested on: Escherichia coli KACC 1039
[45] = tested on: Klebsiella pneumoniae KCTC 2242
[46] = tested on: Pseudomonas aeruginosa KACC 10259
[47] = tested on: Staphylococcus aureus KACC 10196

CC(C)C[C@H](NC(=O)[C@H](CC(C)C)NC(=O)[C@H](Cc1c[nH]c2ccccc12)NC(=O)[C@H](Cc1c[nH]c2ccccc12)NC(=O)[C@H](Cc1c[nH]c2ccccc12)NC(=O)[C@H](CCCN=C(N)N)NC(=O)[C@H](CS)NC(=O)[C@H](Cc1ccccc1)NC(=O)[C@H](Cc1ccc(O)cc1)NC(=O)[C@H](CO)NC(=O)[C@H](C)NC(=O)[C@@H](N)CS)C(N)=O [CASYFCRWWWLL]
MIC [1]: > 64 µM
MIC [2]: ≥ 64 µM
MIC [3]: ≥ 64 µM
MIC [4]: ≥ 64 µM
MIC [5]: ≥ 64 µM
MIC [6]: ≥ 64 µM
MIC [7]: ≥ 64 µM
MIC [8]: ≥ 64 µM
MIC [9]: ≥ 64 µM
MIC [10]: > 64 µM
MIC [11]: ≥ 64 µM
MIC [12]: > 64 µM
MIC [13]: ≥ 64 µM
MIC [14]: > 64 µM
MIC [15]: > 64 µM
MIC [16]: > 64 µM

CC(C)[C@H](NC(=O)[C@H](Cc1c[nH]c2ccccc12)NC(=O)[C@H](Cc1cnc[nH]1)NC(=O)[C@H](CCCN=C(N)N)NC(=O)[C@H](CCCN=C(N)N)NC(=O)[C@H](Cc1c[nH]c2ccccc12)NC(=O)[C@H](Cc1c[nH]c2ccccc12)NC(=O)[C@H](Cc1cnc[nH]1)NC(=O)[C@H](Cc1c[nH]c2ccccc12)NC(=O)[C@H](CCCN=C(N)N)NC(=O)[C@@H](N)CCCCN)C(=O)N[C@H](C(=O)N[C@@H](Cc1c[nH]c2ccccc12)C(N)=O)C(C)C [KRWHWWRRHWVVW]
MIC [17]: 50 µM (≈ 101 µg/mL)
MIC [18]: ≥ 80 µM
MIC [19]: 0.2 µM (≈ 0.403 µg/mL)
MIC [20]: 25 µM (≈ 50.4 µg/mL)
MIC [21]: ≥ 80 µM
MIC [22]: ≥ 80 µM
MIC [23]: 2.5 µM (≈ 5.04 µg/mL)
MIC [24]: 50 µM (≈ 101 µg/mL)
MIC [25]: ≥ 80 µM
MIC [26]: ≥ 80 µM

CC[C@H](C)[C@H](NC(=O)CNC(=O)[C@@H](NC(=O)[C@@H](N)CC(C)C)[C@@H](C)CC)C(=O)N[C@H](C(=O)N[C@@H](CC(=O)O)C(=O)NCC(=O)N[C@H](C(=O)N[C@@H](CCCCN)C(=O)N[C@@H](CCC(=O)O)C(=O)N[C@@H](CCCN=C(N)N)C(=O)N[C@@H](CCCCN)C(=O)N[C@@H](CCCCN)C(=O)N[C@@H](CCCN=C(N)N)C(=O)N[C@@H](CCCN=C(N)N)C(=O)N[C@@H](CCCN=C(N)N)C(N)=O)C(C)C)[C@@H](C)CC [LIGIIDGVKERKKRRR]
MIC [27]: ≥ 64 µM
MIC [1]: > 64 µM
MIC [4]: ≥ 64 µM
MIC [8]: ≥ 64 µM
MIC [10]: > 64 µM
MIC [28]: ≥ 64 µM
MIC [12]: > 64 µM
MIC [13]: ≥ 64 µM
MIC [14]: > 64 µM
MIC [15]: > 64 µM
MIC [29]: > 64 µM
MIC [30]: ≥ 64 µM
MIC [31]: ≥ 64 µM
MIC [32]: ≥ 64 µM

CC[C@H](C)[C@H](NC(=O)[C@@H]1CCCN1C(=O)[C@@H]1CCCN1C(=O)[C@H](CCCN=C(N)N)NC(=O)[C@H](CCCN=C(N)N)NC(=O)[C@H](Cc1ccccc1)NC(=O)[C@@H]1CCCN1C(=O)[C@H](CC(C)C)NC(=O)[C@H](CCCN=C(N)N)NC(=O)[C@H](Cc1ccccc1)NC(=O)[C@@H](N)CCCN=C(N)N)C(=O)N[C@@H](CCCN=C(N)N)C(=O)N[C@H](C(=O)N1CCC[C@H]1C(=O)N1CCC[C@H]1C(=O)N1CCC[C@H]1C(=O)N[C@@H](Cc1ccccc1)C(=O)N[C@@H](Cc1ccc(O)cc1)C(=O)N1CCC[C@H]1C(=O)N1CCC[C@H]1C(=O)N[C@@H](Cc1ccccc1)C(=O)N[C@@H](CCCN=C(N)N)C(=O)N[C@@H](CCCN=C(N)N)C(=O)N[C@@H](Cc1ccccc1)C(=O)N[C@@H](CC(C)C)C(N)=O)[C@@H](C)CC [RFRLPFRRPPIRIPPPFYPPFRRFL]
MIC [33]: 8 µM (≈ 25.9 µg/mL)
MIC [34]: 2 µM (≈ 6.48 µg/mL)
MIC [35]: 4 µM (≈ 13 µg/mL)
MIC [36]: 2 µM (≈ 6.48 µg/mL)
MIC [37]: 11.3 µM (≈ 36.6 µg/mL)
MIC [38]: 4 µM (≈ 13 µg/mL)
MIC [39]: 16 µM (≈ 51.8 µg/mL)
MIC [40]: 0.5 µM (≈ 1.62 µg/mL)

CC[C@H](C)[C@H](NC(=O)[C@H](CO)NC(=O)[C@@H](NC(=O)[C@H](CCCCN)NC(=O)[C@H](Cc1ccccc1)NC(=O)[C@@H]1CCCN1C(=O)[C@H](CCCCN)NC(=O)[C@H](CCCCN)NC(=O)[C@H](Cc1ccccc1)NC(=O)[C@@H](NC(=O)[C@H](CCCCN)NC(=O)[C@H](Cc1c[nH]c2ccccc12)NC(=O)[C@@H](N)CCCN=C(N)N)[C@@H](C)CC)[C@@H](C)CC)C(=O)N[C@@H](Cc1cnc[nH]1)C(=O)N[C@@H](CC(C)C)C(N)=O [RWKIFKKPFKISIHL]
MIC [41]: 1 µM (≈ 1.94 µg/mL)
MIC [42]: 4 µM (≈ 7.76 µg/mL)
MIC [43]: 4 µM (≈ 7.76 µg/mL)
MIC [44]: 1 µM (≈ 1.94 µg/mL)
MIC [45]: 1 µM (≈ 1.94 µg/mL)
MIC [46]: 1 µM (≈ 1.94 µg/mL)
MIC [47]: 4 µM (≈ 7.76 µg/mL)
